Laboratory results reported in patent US20230286970A1, “NOVEL OXADIAZOLE-BASED SELECTIVE HDAC6 INHIBITORS” (ITALFARMACO S.P.A., priority 2020, published 2023).

Key:
[1] = Stability in human plasma; details: after 4 hours, 37° C.
Description: In order to evaluate the stability to circulating enzymes, test compounds were incubated in human and rat plasma at 37° C. in a thermostated oscillating bath. Each test compound was incubated at μM concentration (50 μM when the samples were analysed by UV/HPLC, 1 or 2 μM when the samples were analysed by LC-MS/MS) for 0, 15, 30 minutes and 1, 2 and 4 hours. The reaction was stopped placing samples on ice bath and adding acidified acetonitrile. After centrifugation (10 minutes at 14000 rpm) an aliquot of the supernatant was diluted with water, filtered with 0.45 μm regenerated cellulose syringe filters and injected in HPLC-UV or in LC-MS/MS. The percentage of the remaining amount at the various incubation times with respect to the initial amount were calculated. The half-life in plasma was also calculated.

[2] = Stability to Phase I metabolism in rat S9 liver fraction; details: after 90 minutes, 37° C.
[3] = Stability to Phase I metabolism in human S9 liver fraction; details: after 90 minutes, 37° C.
Description: Test compounds were incubated in rat and human liver S9 fraction at 37° C. up to 90 minutes in order to evaluate their stability to Phase I metabolism by hepatic enzymes. Each test compound was incubated at μM concentration (50 μM when the samples were analysed by UV/HPLC, 1 or 2 μM when the samples were analysed by LC-MS/MS) with S9 fraction (protein content 2 mg/m L) in 100 mM phosphate buffer (pH 7.4), 3.3 mM MgCl2 and 1.3 mM NADPH for 0, 10, 30, 60 and 90 minutes at 37° C. in a thermostated oscillating bath. The reaction was stopped placing samples on ice bath and adding acidified acetonitrile. After centrifugation (10 minutes at 14000 rpm) an aliquot of the supernatant was diluted with water, filtered with 0.45 μm regenerated cellulose syringe filters and injected in HPLC-UV or in LC-MS/MS. The percentage of the remaining amount at the various incubation times with respect to the initial amount were calculated.

Stability in rat plasma = details: after 4 hours, 37° C.
recombinant human HDAC6 = recombinant human HDAC6 (Homo sapiens (Human), UniProt Q9UBN7); test: Enzymatic screening, HDAC6 inhibition (fluorogenic FdL_G substrate); assay type: biochemical
recombinant human HDAC6, sequence (Q9UBN7 whole entry): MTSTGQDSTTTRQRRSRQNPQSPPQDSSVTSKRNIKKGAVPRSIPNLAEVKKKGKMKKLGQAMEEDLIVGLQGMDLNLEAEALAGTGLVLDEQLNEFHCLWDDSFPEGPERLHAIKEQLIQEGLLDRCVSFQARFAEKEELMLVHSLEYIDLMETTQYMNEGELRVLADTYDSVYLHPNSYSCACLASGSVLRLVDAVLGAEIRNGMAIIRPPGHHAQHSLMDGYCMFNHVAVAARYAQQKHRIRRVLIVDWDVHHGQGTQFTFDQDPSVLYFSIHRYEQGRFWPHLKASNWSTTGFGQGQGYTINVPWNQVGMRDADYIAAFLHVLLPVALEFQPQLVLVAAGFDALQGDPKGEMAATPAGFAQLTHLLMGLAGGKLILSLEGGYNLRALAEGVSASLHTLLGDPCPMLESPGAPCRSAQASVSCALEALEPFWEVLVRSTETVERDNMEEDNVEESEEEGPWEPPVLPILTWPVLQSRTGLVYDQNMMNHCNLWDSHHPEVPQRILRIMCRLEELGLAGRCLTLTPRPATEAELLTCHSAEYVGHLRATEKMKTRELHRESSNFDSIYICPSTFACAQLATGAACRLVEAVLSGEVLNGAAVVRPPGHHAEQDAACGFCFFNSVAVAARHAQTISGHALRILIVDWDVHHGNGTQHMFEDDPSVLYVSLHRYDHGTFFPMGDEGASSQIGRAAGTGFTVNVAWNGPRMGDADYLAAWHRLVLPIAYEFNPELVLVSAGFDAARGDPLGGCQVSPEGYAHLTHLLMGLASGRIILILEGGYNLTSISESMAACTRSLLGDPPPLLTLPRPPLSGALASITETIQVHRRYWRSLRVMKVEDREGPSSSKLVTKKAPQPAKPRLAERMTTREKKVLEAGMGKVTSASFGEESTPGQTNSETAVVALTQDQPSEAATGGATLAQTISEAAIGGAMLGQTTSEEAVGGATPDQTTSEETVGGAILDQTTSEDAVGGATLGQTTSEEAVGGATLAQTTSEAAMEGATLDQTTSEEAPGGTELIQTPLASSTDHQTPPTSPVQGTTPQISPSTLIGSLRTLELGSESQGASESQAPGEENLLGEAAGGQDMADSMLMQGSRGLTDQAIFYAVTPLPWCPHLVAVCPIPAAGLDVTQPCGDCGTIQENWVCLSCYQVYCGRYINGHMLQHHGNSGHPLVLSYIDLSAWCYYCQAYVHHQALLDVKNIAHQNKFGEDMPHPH
Procedure, shortened: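 Enzyme was preincubated with compound (8 doses, triplicate, 1% DMSO) in 25 mM Tris-HCl pH 8, 130 mM NaCl, 0.05% Tween-20, 10% glycerol, with BSA. A FLUOR DE LYS-Green substrate was then added, and fluorescence was read after developer plus 2 μM TSA.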

recombinant human HDAC1 = recombinant human HDAC1 (Homo sapiens (Human), UniProt Q13547); test: Enzymatic screening, HDAC1 inhibition (fluorogenic FdL_G substrate); assay type: biochemical
recombinant human HDAC1, sequence (Q13547 whole entry): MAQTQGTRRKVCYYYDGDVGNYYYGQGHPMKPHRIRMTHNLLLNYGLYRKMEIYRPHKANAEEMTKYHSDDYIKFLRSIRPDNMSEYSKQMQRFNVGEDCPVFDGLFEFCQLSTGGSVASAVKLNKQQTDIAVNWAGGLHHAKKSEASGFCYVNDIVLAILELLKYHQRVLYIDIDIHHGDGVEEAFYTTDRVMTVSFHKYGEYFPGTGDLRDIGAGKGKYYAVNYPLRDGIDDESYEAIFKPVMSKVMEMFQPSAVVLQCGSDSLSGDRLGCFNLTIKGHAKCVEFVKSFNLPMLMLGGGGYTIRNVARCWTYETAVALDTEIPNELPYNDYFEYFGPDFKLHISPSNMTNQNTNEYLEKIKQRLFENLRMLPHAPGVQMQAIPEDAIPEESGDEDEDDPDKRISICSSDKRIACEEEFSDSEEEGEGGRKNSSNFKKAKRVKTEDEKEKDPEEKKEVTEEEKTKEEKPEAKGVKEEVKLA
Procedure, shortened: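 Recombinant human HDAC1 inhibition was measured fluorometrically using the FLUOR DE LYS-Green (FdL_G) substrate. Compounds at 8 doses (1% DMSO final) in Tris-HCl pH 8 buffer with NaCl, Tween-20 and glycerol were preincubated in triplicate with enzyme and 1 mg/mL BSA, then given substrate. Developer I plus 2 μM TSA was added, and fluorescence read after 25 minutes in the dark.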

| Compound | residual percentage in HUMAN PLASMA [1] [%] | residual percentage in RAT S9 FRACTION [2] [%] | residual percentage in HUMAN S9 FRACTION [3] [%] | residual percentage in RAT PLASMA (Stability in rat plasma) [%] | IC50 (recombinant human HDAC6) [nM] | IC50 (recombinant human HDAC1) [nM] |
| --- | --- | --- | --- | --- | --- | --- |
| COc1ncc(NCc2ccc(-c3cn(Cc4ccc(-c5nnc(C(F)F)o5)cc4)nn3)cc2)cc1C(N)=O [compound 138, 5-((4-(1-(4-(5-(difluoromethyl)-1,3,4-oxadiazol-2-yl)benzyl)-1H-1,2,3-triazol-4-yl)benzyl)amino)-2-methoxynicotinamide] | 92 | 66 | 70 | – | 54 | > 200000 |
| C[C@H](c1ccc(-c2nnc(C(F)F)o2)cc1)n1cc(-c2ccc(N)nc2)nn1 [compound 106, (R)-5-(1-(1-(4-(5-(difluoromethyl)-1,3,4-oxadiazol-2-yl)phenyl)ethyl)-1H-1,2,3-triazol-4-yl)pyridin-2-amine] | 86 | 69 | 78 | 78 | – | – |
| C[C@@H](c1ccc(-c2nnc(C(F)F)o2)cc1)n1cc(-c2ccc(N)nc2)nn1 [compound 255, (S)-5-(1-(1-(4-(5-(difluoromethyl)-1,3,4-oxadiazol-2-yl)phenyl)ethyl)-1H-1,2,3-triazol-4-yl)pyridin-2-amine] | 91 | 76 | 98 | 57 | – | – |
| CN1CCN(c2ccc(-c3nnn(Cc4ccc(-c5nnc(C(F)F)o5)cc4)n3)cc2)CC1 [compound 213, 2-(difluoromethyl)-5-(4-((5-(4-(4-methylpiperazin-1-yl)phenyl)-2H-tetrazol-2-yl)methyl)phenyl)-1,3,4-oxadiazole] | – | – | – | – | 150 | > 200000 |
| O=C(Nc1cccc(-c2cn(Cc3ccc(-c4nnc(C(F)F)o4)cc3)cn2)c1)N1CCOCC1 [compd. 267, N-(3-(1-(4-(5-(difluoromethyl)-1,3,4-oxadiazol-2-yl)benzyl)-1H-imidazol-4-yl)phenyl)morpholine-4-carboxamide] | – | – | – | – | 85 | > 200000 |
| O=C(NCc1ccco1)c1cccc(-c2nnn(Cc3ccc(-c4nnc(C(F)F)o4)cc3)n2)c1 [compound 96, 3-(2-(4-(5-(difluoromethyl)-1,3,4-oxadiazol-2-yl)benzyl)-2H-tetrazol-5-yl)-N-(furan-2-ylmethyl)benzamide] | – | – | – | – | 37 | > 200000 |
| Nc1ccc(-c2cn(Cc3ccc(-c4nnc(C(F)F)o4)cc3Cl)nn2)cn1 [compound 134, 5-(1-(2-chloro-4-(5-(difluoromethyl)-1,3,4-oxadiazol-2-yl)benzyl)-1H-1,2,3-triazol-4-yl)pyridin-2-amine] | – | – | – | – | 52 | > 200000 |

More lines, now with the values ahead:

| residual percentage in HUMAN PLASMA [1] [%] | residual percentage in RAT S9 FRACTION [2] [%] | residual percentage in HUMAN S9 FRACTION [3] [%] | residual percentage in RAT PLASMA (Stability in rat plasma) [%] | IC50 (recombinant human HDAC6) [nM] | IC50 (recombinant human HDAC1) [nM] | Compound |
| --- | --- | --- | --- | --- | --- | --- |
| 62 | 86 | 70 | 68 | – | – | O=C1NCc2ccc(-c3nnn(Cc4c(F)cc(-c5nnc(C(F)F)o5)cc4F)n3)cc21 [compound 57, 6-(2-(4-(5-(difluoromethyl)-1,3,4-oxadiazol-2-yl)-2,6-difluorobenzyl)-2H-tetrazol-5-yl)isoindolin-1-one] |
| 62 | 78 | 94 | – | 32 | > 200000 | O=C(Nc1cccc(-c2cn(Cc3c(F)cc(-c4nnc(C(F)F)o4)cc3F)nn2)c1)N1CCOCC1 [compound 78, N-(3-(1-(4-(5-(difluoromethyl)-1,3,4-oxadiazol-2-yl)-2,6-difluorobenzyl)-1H-1,2,3-triazol-4-yl)phenyl)morpholine-4-carboxamide] |
| – | – | – | – | 31 | > 200000 | CS(=O)(=O)NCCC(c1ccc(-c2nnc(C(F)F)o2)cn1)n1cc(-c2ccc(N)nc2)nn1 (centres unmarked) [Compd. 293, N-(3-(4-(6-aminopyridin-3-yl)-1H-1,2,3-triazol-1-yl)-3-(5-(5-(difluoromethyl)-1,3,4-oxadiazol-2-yl)pyridin-2-yl)propyl)methanesulfonamide] |
